Laboratory results published in patent US20160115540A1, “PRODRUGS AND DRUGS” (Biogen MA Inc., priority 2013, published 2016).
Where a name gives a salt, the structure may show the parent alone.

System: lymph node
Assay: Transcriptional profiling, chronic dosing, EAE mice: lymph node
Assay type: in vivo
Conditions: for Number of differentially expressed genes identified: Lymph Node: EAE, Chronic Dosing
Source text: EAE induction is generally performed by immunization with brain extracts, CNS proteins (such as myelin basic protein), or peptides from such protein emulsified in an adjuvant such as complete Freund's adjuvant, e.g., as described in Linker et al., Brain. 2011 March 134(Pt3): 678-92. […] FIG. 17 depicts exemplary immunophenotyping panels used to analyze various immune cell populations (e.g., T cells, T regulatory cells, NK cells, B cells, myeloid cells). […] The number of independent mice whose tissues were harvested for transcript profiling studies and whose data passed QC is shown in TABLE 15. Animals were exposed to CO2 and whole blood collected via cardiac puncture. Two 100 μl aliquots of whole blood were collected in 1.5 mL microcentrifuge tubes and snap frozen in liquid nitrogen. Peripheral (liver, spleen, kidney and jejunum) and CNS brain (cerebellum, hippocampus, striatum and cortex) tissues were harvested and snap frozen in liquid nitrogen, with special care taken to collect tissues of similar size and from the same location. All samples were stored at -80° C. until RNA extraction was conducted. For RNA preparation, frozen tissues were placed in 2 mL RNAse-free 96-well blocks with 1.5 mL QIAzol Lysis Reagent (QIAgen) and a 3.2 mm stainless steel bead (BioSpec Products, Bartlesville, Okla.). Tissues were disrupted for four cycles of 45 seconds in a Mini-Beadbeater (Biospec Products). RNA was extracted in chloroform and the aqueous phase was mixed with an equal volume of 70% ethanol. Extracted RNA was applied to RNeasy 96 plates and purified by the spin method according to the manufacturer's protocol (RNeasy 96 Universal Tissue Protocol, QIAgen, Hilden Germany). […] Washing and staining of the hybridized arrays were completed as described in the GeneChip Expression analysis technical manual for HT plate arrays using the Genechip® Array Station (Affymetrix, Santa Clara, Calif.) with modifications as described in […] et al. The processed GeneChip® plate arrays were scanned using GeneTitan scanner (Affymetrix, Santa Clara, Calif.). Affymetrix scans were subject to quality control (QC) measures. These tests included a visual inspection of the distribution of raw signal intensities and an assessment of RNA degradation, relative log expression (RLE), and normalized unscaled standard error (NUSE). All sample scans that passed these QC metrics were included in the analysis. All CEL files were subjected to GC-content-based Robust Multi-array Average (GCRMA) normalization (version 2.20.0) (Irizarry R A, et al. Nucleic Acids Res 2003; 31:e15; Li C, et al. Genome Biol 2001; 2:[…]0032). […] Stat Appl Genet Mol Biol 2004; 3:Article3). […] Springer Science+Business Media 2005). Changes in gene expression were studied by applying a linear modeling approach to fit gene expression levels according to the defined groups of samples (e.g. DMF-, MMF-, and Vehicle-treated animals) and Bayesian posterior error analysis as implemented by Smyth (Smyth G K. Stat Appl Genet Mol Biol 2004; 3:Article3). The comparisons considered included: DMF-vs-MMF, DMF-vs-Vehicle, MMF-vs-Vehicle, and Vehicle-vs-Naïve.

[1] = lymph node, 100MMF-vs-Veh, 12 h
[2] = lymph node, 100DMF-vs-90MMF, 7 h
[3] = lymph node, 100DMF-vs-90MMF, 12 h
[4] = lymph node, 100DMF-vs-Veh, 12 h

COC(=O)/C=C/C(=O)O [MMF, monomethyl fumarate]
Number of differentially expressed genes identified: Lymph Node (90 mpk MMF-vs-Vehicle, 7 h after last dosing): 21 | Number of differentially expressed genes identified: Lymph Node (90 mpk MMF-vs-Vehicle, 12 h after last dosing): 7 | FC BC005685 (1426188_PM_s_at) (lymph node, 100MMF-vs-Veh, 7 h): 1.54 | FC C78662 (1442498_PM_at) (lymph node, 100MMF-vs-Veh, 7 h): 1.68 | FC Clec4e (1420330_PM_at) (lymph node, 100MMF-vs-Veh, 7 h): 2.02 | FC Clec4e (1420331_PM_at) (lymph node, 100MMF-vs-Veh, 7 h): 1.80 | FC Clec4d (1420804_PM_s_at) (lymph node, 100MMF-vs-Veh, 7 h): 2.40 | FC Ctgf (1416953_PM_at) (lymph node, 100MMF-vs-Veh, 7 h): 2.34 | FC Hs3st1 (1423450_PM_a_at) (lymph node, 100MMF-vs-Veh, 7 h): 1.72 | FC Il1f9 1425958_PM_at (lymph node, 100MMF-vs-Veh, 7 h): 1.86 | FC Mmp12 (1449153_PM_at) (lymph node, 100MMF-vs-Veh, 7 h): 5.16 | FC Nqo1 (1423627_PM_at) (lymph node, 100MMF-vs-Veh, 7 h): 2.59 | FC Osgin1 (1424022_PM_at) (lymph node, 100MMF-vs-Veh, 7 h): 1.50 | FC Pla2g7 (1430700_PM_a_at) (lymph node, 100MMF-vs-Veh, 7 h): 1.67 | FC Rnf128 (1449036_PM_at) (lymph node, 100MMF-vs-Veh, 7 h): 1.81 | FC Slc11a1 (1420361_PM_at) (lymph node, 100MMF-vs-Veh, 7 h): 1.57 | FC Slc40a1 1448566_PM_at (lymph node, 100MMF-vs-Veh, 7 h): 1.87 | FC Slc40a1 (1417061_PM_at) (lymph node, 100MMF-vs-Veh, 7 h): 1.80 | FC Srxn1 (1419942_PM_at) (lymph node, 100MMF-vs-Veh, 7 h): 1.93 | FC Srxn1 (1426875_PM_s_at) (lymph node, 100MMF-vs-Veh, 7 h): 1.80 | FC Tnfaip2 (1416273_PM_at) (lymph node, 100MMF-vs-Veh, 7 h): 1.86 | FC Tnfaip2 (1438855_PM_x_at) (lymph node, 100MMF-vs-Veh, 7 h): 1.55 | FC Ugt1a1 /// Ugt1a10 /// Ugt1a2 /// Ugt1a5 /// Ugt1a6a /// Ugt1a6b /// Ugt1a7c /// Ugt1a9 (1426261_PM_s_at) (lymph node, 100MMF-vs-Veh, 7 h): 1.55 | FC Ccl3 (1419561_PM_at) [1]: 2.22 | FC Clec4d (1420804_PM_s_at) [1]: 2.43 | FC Kcne3 (1418499_PM_a_at) [1]: 1.56 | FC Mmp9 (1416298_PM_at) [1]: 1.82 | FC Mmp12 (1449153_PM_at) [1]: 3.95 | FC Npas2 (1421037_PM_at) [1]: 1.56 | FC Tnfaip2 (1416273_PM_at) [1]: 1.54

COC(=O)/C=C/C(=O)OC [DMF, dimethyl fumarate]
Number of differentially expressed genes identified: Lymph Node (100 mpk DMF-vs-90 mpk MMF, 7 h after last dosing): 2 | Number of differentially expressed genes identified: Lymph Node (100 mpk DMF-vs-90 mpk MMF, 12 h after last dosing): 6 | Number of differentially expressed genes identified: Lymph Node (100 mpk DMF-vs-Vehicle, 7 h after last dosing): 14 | Number of differentially expressed genes identified: Lymph Node (100 mpk DMF-vs-Vehicle, 12 h after last dosing): 8 | FC BC005685 (1426188_PM_s_at) [2]: −1.54 | FC Slc10a6 (1428776_PM_at) [2]: −1.52 | FC 1442025_PM_a_at (no gene symbol) [3]: 2.64 | FC 1442026_PM_at (no gene symbol) [3]: 2.92 | FC Angptl4 (1417130_PM_s_at) [3]: 2.93 | FC Cpt1a (1460409_PM_at) [3]: 1.56 | FC Klf11 (1437241_PM_at) [3]: 1.91 | FC Zbtb16 (1419874_PM_x_at) [3]: 2.14 | FC Clec4e (1420330_PM_at) (lymph node, 100DMF-vs-Veh, 7 h): 1.55 | FC Clec4d (1420804_PM_s_at) (lymph node, 100DMF-vs-Veh, 7 h): 1.85 | FC Gdf3 (1449288_PM_at) (lymph node, 100DMF-vs-Veh, 7 h): −1.57 | FC Mmp12 (1449153_PM_at) (lymph node, 100DMF-vs-Veh, 7 h): 3.33 | FC Nqo1 (1423627_PM_at) (lymph node, 100DMF-vs-Veh, 7 h): 2.79 | FC Osgin1 (1424022_PM_at) (lymph node, 100DMF-vs-Veh, 7 h): 1.54 | FC Rnf128 (1449036_PM_at) (lymph node, 100DMF-vs-Veh, 7 h): 1.71 | FC Slc11a1 (1420361_PM_at) (lymph node, 100DMF-vs-Veh, 7 h): 1.57 | FC Srxn1 (1419942_PM_at) (lymph node, 100DMF-vs-Veh, 7 h): 1.98 | FC Srxn1 (1426875_PM_s_at) (lymph node, 100DMF-vs-Veh, 7 h): 1.83 | FC Tnfaip2 (1416273_PM_at) (lymph node, 100DMF-vs-Veh, 7 h): 1.82 | FC Tnfaip2 (1438855_PM_x_at) (lymph node, 100DMF-vs-Veh, 7 h): 1.52 | FC Ugt1a1 /// Ugt1a10 /// Ugt1a2 /// Ugt1a5 /// Ugt1a6a /// Ugt1a6b /// Ugt1a7c /// Ugt1a9 (1424783_PM_a_at) (lymph node, 100DMF-vs-Veh, 7 h): 1.52 | FC Ugt1a1 /// Ugt1a10 /// Ugt1a2 /// Ugt1a5 /// Ugt1a6a /// Ugt1a6b /// Ugt1a7c /// Ugt1a9 (1426261_PM_s_at) (lymph node, 100DMF-vs-Veh, 7 h): 1.62 | FC 1442025_PM_a_at (no gene symbol) [4]: 2.35 | FC 1442026_PM_at (no gene symbol) [4]: 2.48 | FC Clec4d (1420804_PM_s_at) [4]: 2.19 | FC Gzmk (1422280_PM_at) [4]: 1.92 | FC Npas2 (1421037_PM_at) [4]: 1.53 | FC Nqo1 (1423627_PM_at) [4]: 1.70 | FC Ugt1a1 /// Ugt1a10 /// Ugt1a2 /// Ugt1a5 /// Ugt1a6a /// Ugt1a6b /// Ugt1a7c /// Ugt1a9 (1424783_PM_a_at) [4]: 1.56 | FC Zbtb16 (1419874_PM_x_at) [4]: 2.07 | Zbtb16 transcript signal, DMF-treated compared to MMF-treated animals (lymph node, chronically dosed EAE mice, 12 h after final dosing): increased signal
